pIC50: −log10 of the molar value. Calls of active or inactive are those of the source. The calls are words filed in the database; no cut-off is given here.
Tests used:
[1] = tested on: Influenza B virus; experiment: Antiinfluenza activity against influenza B virus infected in MDCK cells assessed as inhibition of virus-induced cytopathic effect after 36 hrs; assay type: functional, organism-based
[2] = Selectivity index, ratio of TC50 for MDCK cells to IC50 for influenza A virus H1N1; assay type: toxicity, cell-based; conditions: dog, read-out: Selectivity Index
[3] = tested on: Influenza A virus; experiment: Antiinfluenza activity against influenza A virus H1N1 infected in MDCK cells assessed as inhibition of virus-induced cytopathic effect after 36 hrs; assay type: functional, organism-based
[4] = Cytotoxicity against MDCK cells; assay type: cell-based, Canis lupus familiaris; conditions: dog, read-out: TC50 (the source's name)
[5] = tested on: Influenza A virus; experiment: Antiinfluenza activity against influenza A virus H3N2 infected in MDCK cells assessed as inhibition of virus-induced cytopathic effect after 36 hrs; assay type: functional, organism-based
[6] = Selectivity index, ratio of TC50 for MDCK cells to IC50 for influenza B virus; assay type: toxicity, cell-based; conditions: dog, read-out: Selectivity Index
[7] = Selectivity index, ratio of TC50 for MDCK cells to IC50 for influenza A virus H3N2; assay type: toxicity, cell-based; conditions: dog, read-out: Selectivity Index
[8] = tested on: Influenza A virus; experiment: Antiinfluenza activity against influenza A virus H3N2 infected in MDCK cells assessed as inhibition of virus-induced cytopathic effect at 0.15 to 1.37 ug/ml after 36 hrs; assay type: functional, organism-based
[9] = tested on: Influenza A virus; experiment: Antiinfluenza activity against influenza A virus; assay type: functional, organism-based
[10] = tested on: Influenza A virus; experiment: Antiinfluenza activity against influenza A virus H3N2; assay type: functional, organism-based
[11] = tested on: Influenza B virus; experiment: Antiinfluenza activity against influenza B virus; assay type: functional, organism-based
[12] = tested on: Influenza A virus; experiment: Antiinfluenza activity against influenza A virus H1N1; assay type: functional, organism-based

With `C=C(C(=O)OCCCCN1CCN(c2ccccc2)CC1)[C@@H]1CC[C@H](C)[C@@H]2CC(=O)C(C)=C2C1` the pIC50 [1] was less than 4.10, the selectivity ratio [2] was 5.2 and the pIC50 [3] was 4.10. It also gave a CC50 [4] of 415 µM and a pIC50 [5] of less than 4.10.

Compound `C=C(C(=O)OCCCCCCCCN1CCN(c2ccccc2)CC1)[C@@H]1CC[C@H](C)[C@@H]2CC(=O)C(C)=C2C1` has a pIC50 [1] of less than 3.80, a selectivity ratio [2] of 3.6 and a pIC50 [3] of 4.03. It also gave a CC50 [4] of 333 µM and a pIC50 [5] of less than 3.80.

In the case of `NC(=O)c1ncn([C@@H]2O[C@H](CO)[C@@H](O)[C@H]2O)n1` [RIBAVIRIN], the pIC50 [1] was 4.83, the selectivity ratio [2] was 666 and the pIC50 [3] was 5.72. For the same compound, the selectivity ratio [6] was 86.9, the CC50 [4] was 1280 µM and the selectivity ratio [7] was 329. For the same compound, the pIC50 [5] was 5.41.

Work on `C=C(C(=O)OCCCCCCN1CCN(c2ccccc2)CC1)[C@@H]1CC[C@H](C)[C@@H]2CC(=O)C(C)=C2C1` yielded a pIC50 [1] of less than 4.25, a pIC50 [3] of less than 4.25 and a CC50 [4] of 394 µM. It also gave a pIC50 [5] of less than 4.25.

`C=C(C(=O)OCCCN1CCN(C)CC1)[C@@H]1CC[C@H](C)[C@@H]2CC(=O)C(C)=C2C1` showed a pIC50 [1] of less than 4.02, a pIC50 [3] of less than 4.02 and a CC50 [4] of 667 µM. For the same compound, the pIC50 [5] was less than 4.02.

In the case of `C=C(C(=O)OCCCn1cncn1)[C@@H]1CC[C@H](C)[C@@H]2CC(=O)C(C)=C2C1`, the pIC50 [1] was less than 4.46, the selectivity ratio [2] was 13 and the pIC50 [3] was 4.62. It also gave a CC50 [4] of 311 µM, a selectivity ratio [7] of 9 and a pIC50 [5] of 4.46.

`C=C(C(=O)OCCCCCN1CCN(C)CC1)[C@@H]1CC[C@H](C)[C@@H]2CC(=O)C(C)=C2C1` gave a pIC50 [1] of 4.69, a selectivity ratio [2] of 12.1 and a pIC50 [3] of 4.77. The selectivity ratio [6] was 10.1, the CC50 [4] was 207 µM and the selectivity ratio [7] was 10.1. The pIC50 [5] was 4.69.

`C=C(C(=O)OCCCCCCCCN1CCN(C)CC1)[C@@H]1CC[C@H](C)[C@@H]2CC(=O)C(C)=C2C1` gave a pIC50 [1] of less than 4.57, a pIC50 [3] of less than 4.57 and a CC50 [4] of 188 µM. It also gave a pIC50 [5] of less than 4.57.

In the case of `C=C(C(=O)OCCCCCCCCCCn1cncn1)[C@@H]1CC[C@H](C)[C@@H]2CC(=O)C(C)=C2C1`, the pIC50 [1] was 4.95, the selectivity ratio [2] was 65 and the inhibition [8] was “Active”. For the same compound, the pIC50 [3] was 6.38, the selectivity ratio [6] was 2.4 and the CC50 [4] was 27.1 µM. For the same compound, the selectivity ratio [7] was 28.1 and the pIC50 [5] was 6.01.

Compound `CCOC(=O)C1=C[C@@H](OC(CC)CC)[C@H](NC(C)=O)[C@@H](N)C1` [OSELTAMIVIR PHOSPHATE] has a pIC50 [1] of less than 3.30, a selectivity ratio [2] of 81.3 and a pIC50 [3] of 4.81. For the same compound, the CC50 [4] was 1260 µM, the selectivity ratio [7] was 1140 and the pIC50 [5] was 5.96.

In the case of `C=C(C(=O)OCCCCCCCCCCN1CCN(C)CC1)[C@@H]1CC[C@H](C)[C@@H]2CC(=O)C(C)=C2C1`, the pIC50 [1] was less than 4.60, the selectivity ratio [2] was 47.6 and the inhibition [8] was “Active”. It also gave a pIC50 [3] of 5.43, a CC50 [4] of 177 µM and a selectivity ratio [7] of 34. For the same compound, the pIC50 [5] was 5.28.

For `C=C(C(=O)OCCCCN1CCN(C)CC1)[C@@H]1CC[C@H](C)[C@@H]2CC(=O)C(C)=C2C1`, the pIC50 [1] was less than 4.04, the selectivity ratio [2] was 62.8 and the pIC50 [3] was 4.99. The CC50 [4] was 644 µM, the selectivity ratio [7] was 9 and the pIC50 [5] was 4.15.

Compound `C=C(C(=O)OCCBr)[C@@H]1CC[C@H](C)[C@@H]2CC(=O)C(C)=C2C1` has a pIC50 [1] of less than 3.50, a pIC50 [3] of less than 3.50 and a CC50 [4] of 1360 µM. For the same compound, the pIC50 [5] was less than 3.50.

`C=C(C(=O)O)[C@@H]1CC[C@H](C)[C@@H]2CC(=O)C(C)=C2C1` [PECHUELOIC ACID] gave a pIC50 [1] of less than 2.39, a pIC50 [3] of less than 2.87 and a CC50 [4] of 4650 µM. For the same compound, the selectivity ratio [7] was 181 and the pIC50 [5] was 4.59.

`C=C(C(=O)OCCCCCn1cncn1)[C@@H]1CC[C@H](C)[C@@H]2CC(=O)C(C)=C2C1` gave a pIC50 [1] of 4.76, a selectivity ratio [2] of 90.8 and a pIC50 [3] of 5.13. For the same compound, the selectivity ratio [6] was 38.9, the CC50 [4] was 672 µM and the selectivity ratio [7] was 38.9. For the same compound, the pIC50 [5] was 4.76.

Work on `C=C(C(=O)OCCCBr)[C@@H]1CC[C@H](C)[C@@H]2CC(=O)C(C)=C2C1` yielded a pIC50 [1] of less than 4.00, a pIC50 [3] of less than 4.00 and a CC50 [4] of 436 µM. It also gave a pIC50 [5] of less than 4.00.

In the case of `C=C(C(=O)OCCCCCCCCCCBr)[C@@H]1CC[C@H](C)[C@@H]2CC(=O)C(C)=C2C1`, the pIC50 [1] was less than 4.58, the selectivity ratio [2] was 20.5 and the inhibition [8] was “Active”. The pIC50 [3] was 5.17, the CC50 [4] was 138 µM and the selectivity ratio [7] was 8.4. For the same compound, the pIC50 [5] was 4.79.

Work on `C=C(C(=O)OCCCCCCCCn1cncn1)[C@@H]1CC[C@H](C)[C@@H]2CC(=O)C(C)=C2C1` yielded a pIC50 [1] of 5.49, a selectivity ratio [2] of 28 and a pIC50 [3] of 5.14. The selectivity ratio [6] was 62.9, the CC50 [4] was 202 µM and the selectivity ratio [7] was 38.8. It also gave a pIC50 [5] of 5.28.

With `C=C(C(=O)OCCCCCN1CCN(c2ccccc2)CC1)[C@@H]1CC[C@H](C)[C@@H]2CC(=O)C(C)=C2C1` the pIC50 [1] was less than 4.59, the selectivity ratio [2] was 5.6 and the pIC50 [3] was 4.70. The CC50 [4] was 112 µM and the pIC50 [5] was less than 4.59.

Compound `C=C(C(=O)OCCCCCCCCBr)[C@@H]1CC[C@H](C)[C@@H]2CC(=O)C(C)=C2C1` has a pIC50 [1] of less than 4.55, a selectivity ratio [2] of 11.8 and a pIC50 [3] of 4.91. For the same compound, the CC50 [4] was 146 µM, the selectivity ratio [7] was 10.4 and the pIC50 [5] was 4.85.

In the case of `C=C(C(=O)OCCCCCCBr)[C@@H]1CC[C@H](C)[C@@H]2CC(=O)C(C)=C2C1`, the pIC50 [1] was 4.28, the selectivity ratio [2] was 11.8 and the pIC50 [3] was 4.40. For the same compound, the selectivity ratio [6] was 9, the CC50 [4] was 469 µM and the selectivity ratio [7] was 9. It also gave a pIC50 [5] of 4.28.

Compound `C=C(C(=O)OCCCCBr)[C@@H]1CC[C@H](C)[C@@H]2CC(=O)C(C)=C2C1` has a pIC50 [1] of 4.17, a selectivity ratio [2] of 5.6 and a pIC50 [3] of 4.12. The selectivity ratio [6] was 6.2, the CC50 [4] was 420 µM and the selectivity ratio [7] was 5.6. The pIC50 [5] was 4.12.

`C=C(C(=O)OCCn1cncn1)[C@@H]1CC[C@H](C)[C@@H]2CC(=O)C(C)=C2C1` gave a pIC50 [1] of less than 5.10, a selectivity ratio [2] of 2.68 and a pIC50 [3] of 4.08. It also gave a CC50 [4] of 224 µM, a selectivity ratio [7] of 3 and a pIC50 [5] of 4.13.

`C=C(C(=O)O)[C@@H]1CC[C@H](C)[C@@H]2CC(=O)C(C)=C2C1c1ccc(C(C)(C)C)cc1` (stereo partly specified) showed a pIC50 [9] of 6.30.

In the case of `C=C(C(=O)OCCCCCCCCCCN1CCN(c2ccccc2)CC1)[C@@H]1CC[C@H](C)[C@@H]2CC(=O)C(C)=C2C1`, the pIC50 [1] was less than 3.82, the selectivity ratio [2] was 188 and the inhibition [8] was “Active”. The pIC50 [3] was 5.62, the CC50 [4] was 456 µM and the selectivity ratio [7] was 4.9. It also gave a pIC50 [5] of 4.03.

With `C=C(C(=O)OCCCCCCn1cncn1)[C@@H]1CC[C@H](C)[C@@H]2CC(=O)C(C)=C2C1` the pIC50 [1] was less than 4.51, the selectivity ratio [2] was 2.48 and the pIC50 [3] was 4.32. It also gave a CC50 [4] of 120 µM, a selectivity ratio [7] of 8 and a pIC50 [5] of 4.83.

For `C=C(C(=O)OCCCCn1cncn1)[C@@H]1CC[C@H](C)[C@@H]2CC(=O)C(C)=C2C1`, the pIC50 [1] was 4.11, the selectivity ratio [2] was 6.7 and the pIC50 [3] was 4.24. It also gave a selectivity ratio [6] of 5, a CC50 [4] of 386 µM and a selectivity ratio [7] of 9. It also gave a pIC50 [5] of 4.37.

`C=C(C(=O)OCCN1CCN(c2ccccc2)CC1)[C@@H]1CC[C@H](C)[C@@H]2CC(=O)C(C)=C2C1` gave a pIC50 [1] of 4.31, a selectivity ratio [2] of 9 and a pIC50 [3] of 4.31. For the same compound, the selectivity ratio [6] was 9, the CC50 [4] was 445 µM and the selectivity ratio [7] was 9. For the same compound, the pIC50 [5] was 4.31.

Compound `C=C(C(=O)OCCCN1CCN(c2ccccc2)CC1)[C@@H]1CC[C@H](C)[C@@H]2CC(=O)C(C)=C2C1` has a pIC50 [1] of less than 4.95, a selectivity ratio [2] of 2.7 and a pIC50 [3] of 4.19. It also gave a CC50 [4] of 171 µM, a selectivity ratio [7] of 3 and a pIC50 [5] of 4.24.

`C=C(C(=O)OCCCl)[C@@H]1CC[C@H](C)[C@@H]2CC(=O)C(C)=C2C1` gave a pIC50 [10] of 4.76, a pIC50 [11] of 3.45 and a pIC50 [12] of 4.56.

With `C=C(C(=O)OCCCCCCN1CCN(C)CC1)[C@@H]1CC[C@H](C)[C@@H]2CC(=O)C(C)=C2C1` the pIC50 [1] was less than 5.02, the pIC50 [3] was less than 5.02 and the CC50 [4] was 86 µM. The pIC50 [5] was less than 5.02.

`C=C(C(=O)OCCCCCBr)[C@@H]1CC[C@H](C)[C@@H]2CC(=O)C(C)=C2C1` showed a pIC50 [1] of less than 4.51, a selectivity ratio [2] of 2.8 and a pIC50 [3] of 4.71. For the same compound, the CC50 [4] was 54 µM, the selectivity ratio [7] was 2.8 and the pIC50 [5] was 4.71.

In the case of `C=C(C(=O)OCCN1CCN(C)CC1)[C@@H]1CC[C@H](C)[C@@H]2CC(=O)C(C)=C2C1`, the pIC50 [1] was less than 4.48, the selectivity ratio [2] was 1.8 and the pIC50 [3] was 3.89. For the same compound, the CC50 [4] was 231 µM and the pIC50 [5] was less than 4.48.

From ChEMBL document CHEMBL1955749, “Synthesis and anti-influenza activity of aminoalkyl rupestonates” (Bioorg Med Chem Lett, 2012)
